# Source: ChEMBL document CHEMBL5316376, “Cyclopentathiophene Carboxamide Derivatives as PAFR Antagonists for Treating Ocular Diseases, Allergies, and Inflammation-Related Disorders” (ACS Med Chem Lett, 2023)
# pIC50: −log10 of the molar value.
# Target: Platelet-activating factor receptor (Homo sapiens, UniProt P25105)
# Assay: Antagonist activity at human PAFR expressed in HEK293 cells assessed as inhibition of PAF C-16 ligand induced receptor activation preincubated for 90 mins followed by PAF ligand addition and measured after 60 mins by HTRF IP1 assay
# Assay type: functional, cell-based
# Sequence of Platelet-activating factor receptor (P25105 whole entry): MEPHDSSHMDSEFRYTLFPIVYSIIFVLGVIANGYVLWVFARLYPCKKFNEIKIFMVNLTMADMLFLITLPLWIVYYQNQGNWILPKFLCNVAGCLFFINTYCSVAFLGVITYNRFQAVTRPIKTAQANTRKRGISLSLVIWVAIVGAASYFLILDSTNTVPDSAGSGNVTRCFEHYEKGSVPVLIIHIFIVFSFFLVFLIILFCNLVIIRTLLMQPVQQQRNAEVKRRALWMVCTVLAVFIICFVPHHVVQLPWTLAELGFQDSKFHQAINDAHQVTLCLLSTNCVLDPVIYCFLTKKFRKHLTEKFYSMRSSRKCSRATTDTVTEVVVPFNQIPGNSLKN
row,pIC50,SMILES
1,8.89,Cc1nnc2n1-c1sc3c(c1[C@@H](c1ccccc1Cl)NC2)C[C@@H](C(=O)NC1CCC(F)(F)CC1)C3
2,8.96,Cc1nnc2n1-c1sc3c(c1[C@H](c1ccccc1Cl)NC2)C[C@@H](C(=O)NCc1ccccc1)C3
3,8.89,Cc1nnc2n1-c1sc3c(c1[C@@H](c1ccccc1Cl)NC2)C[C@@H](C(=O)NC1(c2ccc(Cl)cn2)CC1)C3
4,9.40,Cc1nnc2n1-c1sc3c(c1[C@@H](c1ccccc1Cl)NC2)C[C@@H](C(=O)NCc1ccc(C(F)(F)F)cc1)C3
